Data from ChEMBL document CHEMBL5365546, “The Potential of NOD-like Receptor Protein 3 Inflammasome Inhibitors in the Treatments of Diseases” (ACS Med Chem Lett, 2023).

Tests used:
[1] = biological target: T1, NACHT, LRR and PYD domains-containing protein 3 (Homo sapiens, UniProt Q96P20); experiment: Inhibition of NLRP3 in human PBMC assessed as reduction in LPS-induced TNF level preincubated for 30 mins followed by LPS-stimulation and measured after 6 hrs by MSD assay; assay type: cell-based
[2] = biological target: T1, NACHT, LRR and PYD domains-containing protein 3; experiment: Inhibition of NLRP3 in human PBMC assessed as reduction in LPS-induced IL-1beta level preincubated for 30 mins followed by LPS-stimulation and measured after 6 hrs by MSD assay; assay type: cell-based

T1 sequence (Q96P20 whole entry, the tested form may be a part): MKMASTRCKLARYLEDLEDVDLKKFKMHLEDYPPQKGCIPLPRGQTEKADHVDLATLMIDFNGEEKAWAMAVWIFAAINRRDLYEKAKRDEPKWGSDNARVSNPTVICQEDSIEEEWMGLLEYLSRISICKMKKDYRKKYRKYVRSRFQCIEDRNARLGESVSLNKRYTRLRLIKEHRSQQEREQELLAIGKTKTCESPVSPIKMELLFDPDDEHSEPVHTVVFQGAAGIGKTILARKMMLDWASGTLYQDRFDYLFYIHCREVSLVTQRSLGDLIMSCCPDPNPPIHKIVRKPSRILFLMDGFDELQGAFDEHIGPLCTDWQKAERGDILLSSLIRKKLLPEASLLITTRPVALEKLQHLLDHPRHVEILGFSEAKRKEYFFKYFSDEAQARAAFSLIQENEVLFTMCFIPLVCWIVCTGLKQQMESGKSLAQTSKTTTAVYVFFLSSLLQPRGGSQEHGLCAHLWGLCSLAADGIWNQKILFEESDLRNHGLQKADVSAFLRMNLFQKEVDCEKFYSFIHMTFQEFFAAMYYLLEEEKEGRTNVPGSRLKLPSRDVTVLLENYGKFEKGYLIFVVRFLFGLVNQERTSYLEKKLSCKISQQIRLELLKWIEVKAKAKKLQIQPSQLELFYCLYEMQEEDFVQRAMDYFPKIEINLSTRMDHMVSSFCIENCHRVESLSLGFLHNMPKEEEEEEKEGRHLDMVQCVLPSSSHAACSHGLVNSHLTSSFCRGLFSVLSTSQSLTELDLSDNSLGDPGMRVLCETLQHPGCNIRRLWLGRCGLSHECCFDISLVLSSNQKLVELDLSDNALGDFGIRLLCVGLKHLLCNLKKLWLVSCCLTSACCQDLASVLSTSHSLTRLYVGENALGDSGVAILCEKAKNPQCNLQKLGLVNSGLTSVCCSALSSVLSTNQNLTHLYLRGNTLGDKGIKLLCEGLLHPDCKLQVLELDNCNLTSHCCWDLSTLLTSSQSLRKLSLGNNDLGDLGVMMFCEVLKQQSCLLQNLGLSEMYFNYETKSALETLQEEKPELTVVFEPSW

Structure (SMILES)	AC50 [1] [nM]	AC50 [2] [nM]
CC(C)c1nn(CC(=O)Nc2ccc3nncn3c2)c(=O)cc1N1CC2CC2C1 (stereo not given)	> 10000	90
CC(C)c1nn(CC(=O)Nc2ccc3nncn3c2)c(=O)cc1N1C2CCC1CC2	> 10000	1020
CC(C)c1nn(CC(=O)Nc2ccc3nncn3c2)c(=O)cc1NCC1CC1	> 10000	1530
CC(C)c1nn(CC(=O)Nc2ccc3nncn3c2)c(=O)cc1N1CCCC1Cc1ccccn1 (stereo not given)	> 20000	1280
CC(C)c1nn(CC(=O)Nc2ccc3nncn3c2)c(=O)cc1Nc1ccccc1	> 10000	> 15000
CC(C)c1nn(CC(=O)Nc2ccc3nncn3c2)c(=O)cc1N1CCCCC1	> 20000	1230

The remaining lines, values ahead:

AC50 [1] [nM]	AC50 [2] [nM]	Structure (SMILES)
> 20000	500	CC(C)c1nn(CC(=O)Nc2ccc3nncn3c2)c(=O)cc1N1CC[C@@H]2C[C@@H]2C1
> 20000	420	CC(C)c1nn(CC(=O)Nc2ccc3nncn3c2)c(=O)cc1N1CC[C@H](C)C1
> 10000	330	CC(C)c1nn(CC(=O)Nc2ccc3nncn3c2)c(=O)cc1N1CCCC1
> 10000	530	CC(C)c1nn(CC(=O)Nc2ccc3nncn3c2)c(=O)cc1N1CC[C@@H](F)C1
